Laboratory results published in publication PMC3500254, “Potent Inhibition of Late Stages of Hepadnavirus Replication by a Modified Cell Penetrating Peptide” (PLoS ONE, 2012).
Like-named read-outs stand apart in the source and are kept apart here. Non-standard residues stand in square brackets, D forms with d. Residues, ends and D or L forms follow the SMILES beside them. *: point of attachment. Stearoyl = CCCCCCCCCCCCCCCCCC(=O)*; Palmitoyl = CCCCCCCCCCCCCCCC(=O)*; Myristoyl = CCCCCCCCCCCCCC(=O)*; Lauroyl = CCCCCCCCCCCC(=O)*; Decanoyl = CCCCCCCCCC(=O)*; Octanoyl = CCCCCCCC(=O)*

What was measured:
[1] = test system: Duck Hepatitis B Virus (DHBV)
Experimental: (§1) Infected PDH and LMH-D2 cells were treated with 2 µM of several modified cationic peptides for 5 days. Cells supernatants were collected daily and were spotted onto positively charged nylon membrane and DHBV DNA was detected by hybridization with a DHBV DNA probe labeled with ^32P, and then was quantified by PhosphorImager scanning using ImageQuant software (Molecular Dynamics) to monitor DHBV release. Relative areas under curves determined by the means of duplicate, compared to untreated cells set at 100% are represented. […] Cell viability was determined by enzymatic activity MTT assay after daily incubation with different concentrations of Deca-(Arg)8 ranking from 1 µM to 4 µM during six days. The error bars display the standard deviation of duplicates in three independent experiments.
(§2) DHBV-infected PDHs (A), and stable transfected LMH-D2 cells (B) were treated with increasing amounts of Deca-(Arg)8 ranking from 0.25 µM to 2 µM in duplicates for 6 and 4 days, respectively. Cell culture supernatants were collected daily during treatment. The kinetics of viral release in cell culture supernatants, monitored by dot-blot hybridization and quantified by PhosphorImager scanning using ImageQuant software (Molecular Dynamics) is represented on the upper panel. Relative areas under curves determined by the means of duplicate, compared to untreated cells, are represented in the lower panel. The curves are representative of at least two independent experiments.
(§3) Primary duck hepatocytes (PDH) were isolated from Pekin duck embryos as previously described. DHBV infection was performed at the same time as plating by overnight incubation (16 h) of the hepatocytes with a virus-positive duck serum (30 virus genome equivalents (vge) per cell). The previously described avian hepatoma DHBV transfected LMH-D2 cell line, [38] was grown as previously described. The stably HBV-transfected cell line HepG2.2.15 was grown as previously described. Different amounts of CatLip were added daily to the culture medium from day 1 post-seeding and cells were lyzed at the end of treatment for analysis of intracellular viral DNA, RNA, and proteins. The growth medium was harvested and changed daily. The cellular toxicity was analyzed by daily examination of cells with a light microscope and by a cell toxicity test based on the (3-(4,5-dimethylthiazol-2-yl)-2,5 diphenyl-tetrazolium-bromide (MTT) assay.
(§4) Cells supernatants were harvested daily, spotted onto positively charged nylon membrane and extracellular DHBV DNA was detected in supernatant of cells by dot blot hybridization assay using a full-length ^32P-labelled DHBV probe as described previously. For DHBV intermediate replicative forms analysis, DNA was extracted from cells and 10 µg of the total cellular DNA were subjected to electrophoresis on 1% agarose gel, followed by Southern blot analysis and hybridization with ^32P-labeled genomic DHBV probe as previously described. Viral DNA was quantified by PhosphorImager scanning using ImageQuant software (Molecular Dynamics).

[2] = test system: Duck Hepatitis B Virus (DHBV); assay: Inhibition of DHBV release in stably DHBV-transfected LMH-D2 cells (dot-blot of supernatant DHBV DNA); type: cell-based; conditions: concentration of CPP resulting in 50% inhibition of DHBV release, peptide added daily, PhosphorImager
Experimental: as §1, §2, §3, §4

PDH [3] = conditions: 24 hours at 37°C, 5% CO2, fluorescence microscopy; for FITC-labelled cells (internalization): 0.5 µM; for percentage of FITC-labelled cells: 2 µM
Experimental: Next we analyzed cellular internalization of Deca-(Arg)8-FITC and Arg8-FITC in PDH cells using fluorescence microscopy.
(A); PDHs were plated and treated with (Arg)8 (left panel) or Deca-(Arg)8 (right panel) coupled to FITC at different concentration ranking from 0.5 µM to 2 µM and cells were incubated at 37°c, 5% of CO2 for 24 hours. Cells were observed by fluorescence microscopy (Magnificationx20).

PDH [4] = assay: MTT cell viability, PDH; type: cell-based, Pekin duck; conditions: daily exposure 1 µM to 4 µM for 6 days, duplicates in three independent experiments
Experimental: (§5) Figure 1 Inhibition of DHBV release in PDHs and LMH-D2 cells by modified cationic peptides and effect of Deca-(Arg)8 on cell viability. Infected PDH and LMH-D2 cells were treated with 2 µM of several modified cationic peptides for 5 days. […] Relative areas under curves determined by the means of duplicate, compared to untreated cells set at 100% are represented. The two representations show the effect of modified cationic peptides derived from (Arg)8 sequence with increasing number of arginine in the peptide (A) or with increasing number of carbon in the fatty acid chain (B). Dose-dependent effects of Deca-(Arg)8 transduction on cell viability (C). Cell viability was determined by enzymatic activity MTT assay after daily incubation with different concentrations of Deca-(Arg)8 ranking from 1 µM to 4 µM during six days. The error bars display the standard deviation of duplicates in three independent experiments. […]
(§6) Primary duck hepatocytes (PDH) were isolated from Pekin duck embryos as previously described. […] The cellular toxicity was analyzed by daily examination of cells with a light microscope and by a cell toxicity test based on the (3-(4,5-dimethylthiazol-2-yl)-2,5 diphenyl-tetrazolium-bromide (MTT) assay.

LMH-D2 cells = type: cell-based, avian; conditions: daily exposure 1 µM to 4 µM for 6 days, duplicates in three independent experiments
Experimental: as §5, §6

| Compound | IC50 ([1]; 16 h) [nM] | IC50 [2] [nM] | further results |
| --- | --- | --- | --- |
| CCCCCCCCCCCC(=O)N[C@H](Cc1c[nH]c2ccccc12)C(=O)N[C@H](CCCNC(=N)N)C(=O)N[C@H](CCCNC(=N)N)C(=O)N[C@H](CCCNC(=N)N)C(=O)N[C@H](CCCNC(=N)N)C(=O)N[C@H](CCCNC(=N)N)C(=O)N[C@H](CCCNC(=N)N)C(=O)N[C@H](CCCNC(=N)N)C(=O)N[C@H](CCCNC(=N)N)C(=O)NCC(N)=O [Dodeca-(Arg)8] (Lauroyl-[dW][dR][dR][dR][dR][dR][dR][dR][dR]G-NH2) | 900 | 700 | – |
| CCCCCCCCCC(=O)N[C@H](CCCNC(=N)N)C(=O)N[C@H](CCCNC(=N)N)C(=O)N[C@H](CCCNC(=N)N)C(=O)N[C@H](CCCNC(=N)N)C(=O)N[C@H](CCCCN)C(=O)N[C@H](CCCCN)C(=O)N[C@H](CCCCN)C(=O)N[C@H](CCCCN)C(=O)NCC(N)=O [Deca-(Arg-Lys)4–4] (Decanoyl-[dR][dR][dR][dR][dK][dK][dK][dK]G-NH2) | 2300 | – | – |
| CCCCCCCC(=O)N[C@H](Cc1c[nH]c2ccccc12)C(=O)N[C@H](CCCNC(=N)N)C(=O)N[C@H](CCCNC(=N)N)C(=O)N[C@H](CCCNC(=N)N)C(=O)N[C@H](CCCNC(=N)N)C(=O)N[C@H](CCCNC(=N)N)C(=O)N[C@H](CCCNC(=N)N)C(=O)N[C@H](CCCNC(=N)N)C(=O)N[C@H](CCCNC(=N)N)C(=O)NCC(N)=O [Octa-(Arg)8] (Octanoyl-[dW][dR][dR][dR][dR][dR][dR][dR][dR]G-NH2) | 1700 | 2700 | – |
| N=C(N)NCCC[C@@H](NC(=O)[C@H](N)Cc1c[nH]c2ccccc12)C(=O)N[C@H](CCCNC(=N)N)C(=O)N[C@H](CCCNC(=N)N)C(=O)N[C@H](CCCNC(=N)N)C(=O)N[C@H](CCCNC(=N)N)C(=O)N[C@H](CCCNC(=N)N)C(=O)N[C@H](CCCNC(=N)N)C(=O)N[C@H](CCCNC(=N)N)C(=O)NCC(N)=O [(Arg)8] (H-[dW][dR][dR][dR][dR][dR][dR][dR][dR]G-NH2) | 1800 | 1300 | inhibition of DHBV secretion ([1]; 5-days treatment, (Arg)8 0.5 to 2 µM, compared with Deca-(Arg)8, Fig. S2 (PDH and LMH-D2; cell system not given)): 60% |
| CCCCCCCCCC(=O)N[C@H](Cc1c[nH]c2ccccc12)C(=O)N[C@H](CCCNC(=N)N)C(=O)N[C@H](CCCNC(=N)N)C(=O)N[C@H](CCCNC(=N)N)C(=O)N[C@H](CCCNC(=N)N)C(=O)N[C@H](CCCNC(=N)N)C(=O)N[C@H](CCCNC(=N)N)C(=O)N[C@H](CCCNC(=N)N)C(=O)N[C@H](CCCNC(=N)N)C(=O)N[C@H](CCCNC(=N)N)C(=O)N[C@H](CCCNC(=N)N)C(=O)NCC(N)=O [Deca-(Arg)10] | 1400 | – | – |
| CCCCCCCCCCCCCCCC(=O)N[C@H](Cc1c[nH]c2ccccc12)C(=O)N[C@H](CCCNC(=N)N)C(=O)N[C@H](CCCNC(=N)N)C(=O)N[C@H](CCCNC(=N)N)C(=O)N[C@H](CCCNC(=N)N)C(=O)N[C@H](CCCNC(=N)N)C(=O)N[C@H](CCCNC(=N)N)C(=O)N[C@H](CCCNC(=N)N)C(=O)N[C@H](CCCNC(=N)N)C(=O)NCC(N)=O [Palmit-(Arg)8] (Palmitoyl-[dW][dR][dR][dR][dR][dR][dR][dR][dR]G-NH2) | 1800 | 1700 | – |
| Fluoresceinyl-lysine-RRRRRRRRG-NH2 [(Arg)8-FITC] | – | – | FITC-labelled cells (internalization) (PDH [3]): remained negative; percentage of FITC-labelled cells (PDH [3]): 70% |
| CCCCCCCCCC(=O)N[C@H](Cc1c[nH]c2ccccc12)C(=O)N[C@H](CCCNC(=N)N)C(=O)N[C@H](CCCNC(=N)N)C(=O)N[C@H](CCCNC(=N)N)C(=O)N[C@H](CCCNC(=N)N)C(=O)N[C@H](CCCNC(=N)N)C(=O)N[C@H](CCCNC(=N)N)C(=O)N[C@H](CCCNC(=N)N)C(=O)N[C@H](CCCNC(=N)N)C(=O)NCC(N)=O [Deca-(Arg)8] (Decanoyl-[dW][dR][dR][dR][dR][dR][dR][dR][dR]G-NH2) | 600 | 300 | cell viability (MTT) versus untreated cells (PDH [4]): No statistically significant difference; cell viability (MTT) versus untreated cells (LMH-D2 cells): No statistically significant difference |
| CCCCCCCCCC(=O)N[C@H](Cc1c[nH]c2ccccc12)C(=O)N[C@H](CCCNC(=N)N)C(=O)N[C@H](CCCNC(=N)N)C(=O)N[C@H](CCCNC(=N)N)C(=O)N[C@H](CCCNC(=N)N)C(=O)N[C@H](CCCNC(=N)N)C(=O)N[C@H](CCCNC(=N)N)C(=O)NCC(N)=O [Deca-(Arg)6] | – | 2200 | IC50 ([1]; read-out: IC50 of DHBV release, PDH, DHBV-infected PDH, concentration of CPP resulting in 50% inhibition of DHBV release, peptide added daily, supernatant DHBV DNA by dot-blot, 32P probe, PhosphorImager): 1400 nM |
| CCCCCCCCCC(=O)O [decanoic acid, reference compound] | – | – | effect on DHBV secretion ([1]; 5-days treatment, decanoic acid 0.5 to 10 µM, Fig. S2 (PDH and LMH-D2)): unable to significantly decrease DHBV secretion |
| CCCCCCCCCCCCCCCCCC(=O)N[C@H](Cc1c[nH]c2ccccc12)C(=O)N[C@H](CCCNC(=N)N)C(=O)N[C@H](CCCNC(=N)N)C(=O)N[C@H](CCCNC(=N)N)C(=O)N[C@H](CCCNC(=N)N)C(=O)N[C@H](CCCNC(=N)N)C(=O)N[C@H](CCCNC(=N)N)C(=O)N[C@H](CCCNC(=N)N)C(=O)N[C@H](CCCNC(=N)N)C(=O)NCC(N)=O [Stear-(Arg)8] (Stearoyl-[dW][dR][dR][dR][dR][dR][dR][dR][dR]G-NH2) | 1900 | 1800 | – |
| CCCCCCCCCC(=O)N[C@H](Cc1c[nH]c2ccccc12)C(=O)N[C@H](CCCNC(=N)N)C(=O)N[C@H](CCCNC(=N)N)C(=O)N[C@H](CCCNC(=N)N)C(=O)N[C@H](CCCNC(=N)N)C(=O)N[C@H](CCCNC(=N)N)C(=O)N[C@H](CCCNC(=N)N)C(=O)N[C@H](CCCNC(=N)N)C(=O)NCC(N)=O [Deca-(Arg)7] | 900 | 800 | – |
| CCCCCCCCCC(=O)N[C@H](Cc1c[nH]c2ccccc12)C(=O)N[C@H](CCCNC(=N)N)C(=O)N[C@H](CCCNC(=N)N)C(=O)N[C@H](CCCNC(=N)N)C(=O)N[C@H](CCCNC(=N)N)C(=O)N[C@H](CCCNC(=N)N)C(=O)N[C@H](CCCNC(=N)N)C(=O)N[C@H](CCCNC(=N)N)C(=O)N[C@H](CCCNC(=N)N)C(=O)N[C@H](CCCNC(=N)N)C(=O)NCC(N)=O [Deca-(Arg)9] (Decanoyl-[dW][dR][dR][dR][dR][dR][dR][dR][dR][dR]G-NH2) | 1600 | – | – |
| Decanoic acid (C10:0)-Fluoresceinyl-lysine–RRRRRRRRG-NH2 [Deca-(Arg)8-FITC] | – | – | FITC-labelled cells (internalization) (PDH [3]): a higher number of FITC-labelled cells were observable; percentage of FITC-labelled cells (PDH [3]): more than 90% |
| CCCCCCCCCCCCCC(=O)N[C@H](Cc1c[nH]c2ccccc12)C(=O)N[C@H](CCCNC(=N)N)C(=O)N[C@H](CCCNC(=N)N)C(=O)N[C@H](CCCNC(=N)N)C(=O)N[C@H](CCCNC(=N)N)C(=O)N[C@H](CCCNC(=N)N)C(=O)N[C@H](CCCNC(=N)N)C(=O)N[C@H](CCCNC(=N)N)C(=O)N[C@H](CCCNC(=N)N)C(=O)NCC(N)=O [Myrist-(Arg)8] (Myristoyl-[dW][dR][dR][dR][dR][dR][dR][dR][dR]G-NH2) | 1200 | 1200 | – |
